For this assay, the system named is P388 leukemia ip, CD2F1 mice, survival T/C. As to the kind of experiment: NCI In Vivo Anticancer Drug Screen. Data for tumor model P388 Leukemia (intraperitoneal) in CD2F1 (CDF1) mice. The settings on record: endpoint: median survival time, higher = longer survival. The method, boiled down: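 Mice carrying the transplanted tumor received test compound or vehicle. Survival was recorded in each group, and the value is the treated-group measurement divided by that of the vehicle-treated control group.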

Setting [1] is: dose: 100.0 mg/kg/injection, schedule: Q04DX003 (ip), vehicle: saline with Tween-80.
[2] abbreviates: dose: 200.0 mg/kg/injection, schedule: Q04DX003 (ip), vehicle: saline with Tween-80.
Where [3] appears, read: dose: 50.0 mg/kg/injection, schedule: Q01DX005 (ip), vehicle: Klucel (hydroxypropylcellulose) (HPC).
[4] abbreviates: dose: 100.0 mg/kg/injection, schedule: Q01DX005 (ip), vehicle: Klucel (hydroxypropylcellulose) (HPC).
The mark [5] stands for this setting: dose: 200.0 mg/kg/injection, schedule: Q01DX005 (ip), vehicle: Klucel (hydroxypropylcellulose) (HPC).
Setting [6] is: dose: 25.0 mg/kg/injection, schedule: Q01DX009 (ip), vehicle: saline.
The mark [7] stands for this setting: dose: 50.0 mg/kg/injection, schedule: Q01DX009 (ip), vehicle: saline.
Where [8] appears, read: dose: 100.0 mg/kg/injection, schedule: Q01DX001 (ip), vehicle: Klucel (hydroxypropylcellulose) (HPC).
[9] abbreviates: dose: 200.0 mg/kg/injection, schedule: Q01DX001 (ip), vehicle: Klucel (hydroxypropylcellulose) (HPC).
[10] abbreviates: dose: 12.5 mg/kg/injection, schedule: Q01DX009 (ip), vehicle: saline.
The mark [11] stands for this setting: dose: 60.0 mg/kg/injection, schedule: Q01DX005 (ip), vehicle: Klucel (hydroxypropylcellulose) (HPC).
The mark [12] stands for this setting: dose: 120.0 mg/kg/injection, schedule: Q01DX005 (ip), vehicle: Klucel (hydroxypropylcellulose) (HPC).
Setting [13] is: dose: 100.0 mg/kg/injection, schedule: Q01DX009 (ip), vehicle: saline with Tween-80.
[14] abbreviates: dose: 200.0 mg/kg/injection, schedule: Q01DX009 (ip), vehicle: saline with Tween-80.
[15] abbreviates: dose: 100.0 mg/kg/injection, schedule: Q01DX001 (ip), vehicle: saline with Tween-80.
Where [16] appears, read: dose: 200.0 mg/kg/injection, schedule: Q01DX001 (ip), vehicle: saline with Tween-80.
Where [17] appears, read: dose: 400.0 mg/kg/injection, schedule: Q01DX001 (ip), vehicle: saline with Tween-80.

Toxic doses and inconclusive results are not listed.

Consider `O=C1OC(=O)C2C3C=CC(C3)C12` (stereo not given), for which the T/C runs as follows: (dose: 12.5 mg/kg/injection, schedule: Q01DX009 (ip), vehicle: saline sonified) 100 % of control; (dose: 25.0 mg/kg/injection, schedule: Q01DX009 (ip), vehicle: saline sonified) 100 % of control; (dose: 50.0 mg/kg/injection, schedule: Q01DX009 (ip), vehicle: saline sonified) 100 % of control.
Take `CCCCCCCCCCCCCCCCCC(=O)NN`: the T/C runs as follows: under setting [1], 94 % of control; under setting [2], 87 % of control.
`CC1(C)CCCC12CCN1CCC([N+](=O)[O-])C12` (stereo not given): the T/C (dose: 11.5 mg/kg/injection, schedule: Q04DX003 (ip), vehicle: saline with Tween-80) is 100 % of control; the T/C (dose: 23.0 mg/kg/injection, schedule: Q04DX003 (ip), vehicle: saline with Tween-80) is 108 % of control; the T/C (dose: 46.0 mg/kg/injection, schedule: Q04DX003 (ip), vehicle: saline with Tween-80) is 100 % of control; the T/C (dose: 92.0 mg/kg/injection, schedule: Q04DX003 (ip), vehicle: saline with Tween-80) is 108 % of control.
`CCOCC[Si]12OCCN(CCO1)CCO2`: the T/C was 97 % of control under setting [3], 101 % of control under setting [4] and 90 % of control under setting [5].
As to `O=C1OC(C2OC(=O)C(=O)C2C(=O)c2ccc(Cl)c(Cl)c2)C(C(=O)c2ccc(Cl)c(Cl)c2)C1=O` (stereo not given), the T/C (dose: 60.0 mg/kg/injection, schedule: Q01DX005 (ip), vehicle: saline) is 100 % of control; the T/C (dose: 120.0 mg/kg/injection, schedule: Q01DX005 (ip), vehicle: saline) is 96 % of control; the T/C (dose: 240.0 mg/kg/injection, schedule: Q01DX005 (ip), vehicle: saline) is 90 % of control.
As to `COc1ccc(/C=C/c2ccnnc2)c(OC)c1OC`, the T/C is 102 % of control under setting [6]; 102 % of control under setting [7]; 105 % of control (dose: 100.0 mg/kg/injection, schedule: Q01DX009 (ip), vehicle: saline).
With `CCCn1cnc2c(sc3ccccc32)c1=O`, the T/C was 101 % of control under setting [3], 93 % of control under setting [4] and 93 % of control under setting [5].
`O=c1c(Cc2ccc(Cl)cc2)coc2ccccc12`: the T/C by setting is: (dose: 60.0 mg/kg/injection, schedule: Q01DX005 (ip), vehicle: saline with Tween-80) 94 % of control; (dose: 120.0 mg/kg/injection, schedule: Q01DX005 (ip), vehicle: saline with Tween-80) 94 % of control; (dose: 240.0 mg/kg/injection, schedule: Q01DX005 (ip), vehicle: saline with Tween-80) 101 % of control.
Regarding `CCOC(=O)C12C(C(=O)OC)=CC(=O)NC1(OCC)OC(C)C2C` (stereo not given), the T/C is 94 % of control (dose: 50.0 mg/kg/injection, schedule: Q01DX001 (ip), vehicle: Klucel (hydroxypropylcellulose) (HPC)); 89 % of control under setting [8]; 89 % of control under setting [9].
Take `CNC(=O)N=Nc1ccccc1`: the T/C is, setting by setting: (dose: 50.0 mg/kg/injection, schedule: Q01DX005 (ip), vehicle: saline + Tween-80 + alcohol) 100 % of control; (dose: 100.0 mg/kg/injection, schedule: Q01DX005 (ip), vehicle: saline + Tween-80 + alcohol) 100 % of control; (dose: 200.0 mg/kg/injection, schedule: Q01DX005 (ip), vehicle: saline + Tween-80 + alcohol) 100 % of control.
Turning to `CC[C@H](C)[C@H](NC(=O)OC(C)(C)C)C(=O)ON1C(=O)CCC1=O`, the T/C was 109 % of control (dose: 50.0 mg/kg/injection, schedule: Q01DX005 (ip), vehicle: saline with Tween-80); 113 % of control (dose: 100.0 mg/kg/injection, schedule: Q01DX005 (ip), vehicle: saline with Tween-80); 109 % of control (dose: 200.0 mg/kg/injection, schedule: Q01DX005 (ip), vehicle: saline with Tween-80).
Turning to `CCOC(=O)NCC(C)(C)CNC(=O)OCC`, the T/C (dose: 3.13 mg/kg/injection, schedule: Q01DX009 (ip), vehicle: saline) was 100 % of control; the T/C (dose: 6.25 mg/kg/injection, schedule: Q01DX009 (ip), vehicle: saline) was 105 % of control; the T/C under setting [10] was 105 % of control; the T/C under setting [6] is 103 % of control.
As for `O=C(O)CCC(=O)c1ccc(Br)cc1`, the T/C was 109 % of control under setting [1]; 104 % of control under setting [2]; 109 % of control (dose: 400.0 mg/kg/injection, schedule: Q04DX003 (ip), vehicle: saline with Tween-80).
In the case of `Cc1csc2nc(-c3ccco3)nn12`, the T/C reads like this: under setting [11], 107 % of control; under setting [12], 107 % of control.
On to `C[CH2][Sn]([CH2]C)([O]c1cccccc1=O)[O]c1cccccc1=O`, for which the T/C is 116 % of control under setting [8]; 110 % of control under setting [9]; 110 % of control (dose: 400.0 mg/kg/injection, schedule: Q01DX001 (ip), vehicle: Klucel (hydroxypropylcellulose) (HPC)).
Take `C=C1C(=O)O[C@@H]2[C@H](O)[C@@H](C)[C@@H]3C=CC(=O)[C@@]3(C)[C@@H](OC(=O)/C(C)=C/C)[C@H]12`: the T/C runs as follows: (dose: 1.5 mg/kg/injection, schedule: Q01DX009 (ip), vehicle: saline + alcohol) 107 % of control; (dose: 6.0 mg/kg/injection, schedule: Q01DX009 (ip), vehicle: saline + alcohol) 118 % of control; (dose: 6.75 mg/kg/injection, schedule: Q01DX009 (ip), vehicle: saline + alcohol) 158 % of control; (dose: 8.75 mg/kg/injection, schedule: Q01DX009 (ip), vehicle: saline + alcohol) 120 % of control; (dose: 12.0 mg/kg/injection, schedule: Q01DX009 (ip), vehicle: saline + alcohol) 116 % of control; (dose: 12.5 mg/kg/injection, schedule: Q01DX009 (ip), vehicle: saline + alcohol) 164 % of control.
Consider `Cc1cc2c(c(O)cc(=O)n2C)c(=O)n1C`, for which the T/C reads like this: under setting [11], 102 % of control; under setting [12], 91 % of control; (dose: 240.0 mg/kg/injection, schedule: Q01DX005 (ip), vehicle: Klucel (hydroxypropylcellulose) (HPC)) 91 % of control.
For the compound `CSc1nnc(N)s1`, the T/C (dose: 50.0 mg/kg/injection, schedule: Q01DX009 (ip), vehicle: saline with Tween-80) is 106 % of control; the T/C under setting [13] was 93 % of control; the T/C under setting [14] is 100 % of control.
Consider `C[C@]12CCC(=O)C[C@H]1CC[C@@H]1[C@@H]2CC[C@@]2(C)[C@H]1CC[C@]2(C)O`, for which the T/C under setting [13] was 90 % of control; the T/C under setting [14] is 95 % of control; the T/C (dose: 400.0 mg/kg/injection, schedule: Q01DX009 (ip), vehicle: saline with Tween-80) was 100 % of control.
In the case of `Cc1nnc2c(N)nccn12`, the T/C reads like this: under setting [8], 94 % of control; under setting [9], 96 % of control.
For the compound `Cc1cc(N/N=C/c2ccc([N+](=O)[O-])o2)c2cc3c(cc2n1)OCO3`, the T/C is 91 % of control under setting [3], 98 % of control under setting [4] and 96 % of control under setting [5].
On the same counts, the results for `CC(=O)CCC(=O)[O][Bi]([c]1ccccc1)[c]1ccccc1` are 110 % of control, 114 % of control and 114 % of control.
For the compound `COc1ccc2c(c1O)C1=CC=CCC13CCN(C)C3C2` (stereo not given), the T/C (dose: 100.0 mg/kg/injection, schedule: Q04DX002 (ip), vehicle: saline with Tween-80) was 103 % of control; the T/C (dose: 200.0 mg/kg/injection, schedule: Q04DX002 (ip), vehicle: saline with Tween-80) is 105 % of control; the T/C (dose: 400.0 mg/kg/injection, schedule: Q04DX002 (ip), vehicle: saline with Tween-80) is 108 % of control.
On to `CC(C)=CCC(OC(=O)C=C(C)C)c1cc(O)c2c(O)ccc(O)c2c1O.[Co]` (stereo not given), for which the T/C by setting is: under setting [15], 103 % of control; under setting [16], 101 % of control; under setting [17], 113 % of control.
Take `COc1ccc(NCC(=O)O)c([N+](=O)[O-])c1`: the T/C is 100 % of control under setting [15], 109 % of control under setting [16] and 109 % of control under setting [17].
Take `COc1cc(Cc2nc3n(O)cc(C)nc-3c(=N)n2)cc(OC)c1OC`: the T/C is 99 % of control under setting [10], 105 % of control under setting [6] and 108 % of control under setting [7].

These data come from PubChem BioAssay AID330 (DTP/NCI, 2004).
